Assays:
[1] = Dialysis of artificial plasma with 1.5 mM phytate against dialysing liquid without phytate; format: in vitro ADME; conditions: after a 20-hour period, pH 7.4
Experimental: An artificial plasma (liquid with a composition similar to that of plasma) was prepared with 1.5 mM phytate, regulating the ionic strength with 0.15 M NaCl. 25 ml of this solution were dialysed for 20 hours against a 1-l volume of a 0.15 M NaCl solution without phytate (dialysing liquid model). The pH of both solutions was adjusted to 7.4 using bicarbonate buffer. 5-ml aliquots of the dialysing liquid were collected at times 0, 1, 3, 6 and 20 hours, and the quantity of phytate in each of them was determined. Moreover, the concentration of phytate in the artificial plasma was determined at times 0 and 20 hours.

[2] = Dialysis of artificial plasma with 300 μM phytate against dialysing liquid with 5 times greater phytate concentration; format: in vitro ADME
Experimental: (§1) An artificial plasma was prepared with 300 μM of phytate, regulating the ionic strength with 0.15 M NaCl. 25 ml of this solution were dialysed for 20 hours against a 1-l volume of a 0.15 M NaCl solution with a concentration of phytate 5 times greater than that of the plasma. The pH of both solutions was adjusted to 7.4 using bicarbonate buffer. 5-ml aliquots of the dialysing liquid were collected at times 0, 1, 3, 6 and 20 hours, and the quantity of phytate was determined in each of them. Moreover, the concentration of phytate in the artificial plasma was determined at times 0 and 20 hours.

[3] = Intravenous administration to rats on a diet without phytate; urinary and plasma phytate; format: in vivo, male Wistar rats; conditions: treated group, 3 intravenous doses of 0.61 mmol/kg (400 mg/kg) 12 hours apart
Experimental: 6 male Wistar rats approximately 250 g in weight were acclimated from 7 dias in the animal house (T=[…] and humidity=60±5%) with 12:12-hour light-darkness cycles. The rats were housed in Plexiglas cages, with one animal per cage, and fed with food and drink ad libitum.
Following the acclimation period, the animals were randomly divided into two groups with 3 rats each, a control group (with a diet without phytate, thereby simulating a post-dialysis physiological condition) and a treated group, which received 3 intravenous doses of 0.61 mmol/kg (400 mg/kg) separated by 12-hour periods. Following the last administration, 24-hour urine samples were collected in order to determine the phytate and, subsequently, the animals were anaesthesised and blood samples were collected.
The procedures used in this experiment were performed in accordance with Directive 86/609/EEC regarding the protection of animals used for experimental and scientific purposes.

[4] = Dialysis of artificial plasma with 1.5 mM phytate against dialysing liquid with the same concentration of phytate; format: in vitro ADME; conditions: 20 hours dialysis; 1.5 mM phytate in both plasma and dialysing liquid, pH 7.4
Experimental: as §1, with “with 1.5 mM” for “with 300 μM”, “with the same” for “with a”, “phytate as” for “phytate 5 times greater than that of”

[5] = Dialysis of artificial plasma with 1 mM etidronate against dialysing liquid with 5 times greater etidronate concentration; format: in vitro ADME
Experimental: (§2) An artificial plasma was prepared with 1 mM of etidronate, regulating the ionic strength with 0.15 M NaCl. 25 ml of this solution were dialysed for 20 hours against a 1-l volume of a 0.15 M NaCl solution with a concentration of etidronate 5 times greater than that of the plasma. The pH of both solutions was adjusted to 7.4 using bicarbonate buffer.
(§3) 5-ml aliquots of the dialysing liquid were collected at times 0, 1, 3, 6 and 20 hours, and the quantity of etidronate was determined in each of them. Moreover, the concentration of etidronate in the artificial plasma was determined at times 0 and 20 hours.

[6] = Dialysis of artificial plasma with 5 mM etidronate against dialysing liquid without etidronate; format: in vitro ADME; conditions: after a 20-hour period, pH 7.4
Experimental: An artificial plasma was prepared with 5 mM of etidronate, regulating the ionic strength with 0.15 M NaCl. 25 ml of this solution were dialysed for 20 hours against a 1-l volume of a 0.15 M NaCl solution without etidronate (dialysing liquid model). The pH of both solutions was adjusted to 7.4 using bicarbonate buffer.
as §3

[7] = Dialysis of artificial plasma with 5 mM etidronate against dialysing liquid with the same concentration of etidronate; format: in vitro ADME; conditions: 20 hours dialysis; 5 mM etidronate in both plasma and dialysing liquid, pH 7.4
Experimental: as §2, with “with 5” for “with 1”, “with the same” for “with a”, “etidronate as” for “etidronate 5 times greater than that of”
as §3

Row | quantity of phytate in the dialysis solution, as share of the initial quantity in the artificial plasma [1] | change of plasma concentration of phytate (in words) ([2]; 20-hour period, dialysis liquid with phytate concentration greater than that of the plasma) | phytate from the dialysis liquid that enters into the artificial plasma ([2]; 20 hours dialysis, plasma 300 μM phytate, dialysis liquid 5 times greater, pH 7.4) | increase of the concentration of phytate in the artificial plasma ([2]; 20 hours dialysis, plasma 300 μM phytate, dialysis liquid 5 times greater, from ratio of initial volumes and concentrations) | concentration at 24 h ([3]; male, Wistar, rat, plasma, blood 24 hours after last administration, read-out: plasma level of phytate) | urinary excretion of phytate ([3]; 24-hour urine after last administration) | variation in the concentration of phytate in the plasma and the dialysing liquid [4] | change of plasma concentration of etidronate (in words) ([5]; 20-hour period, dialysis liquid with etidronate concentration greater than that of the plasma) | etidronate from the dialysis liquid that enters into the artificial plasma ([5]; 20 hours dialysis, plasma 1 mM etidronate, dialysis liquid 5 times greater, pH 7.4) | increase of the concentration of etidronate in the artificial plasma ([5]; 20 hours dialysis, plasma 1 mM etidronate, dialysis liquid 5 times greater, from ratio of initial volumes and concentrations) | quantity of etidronate in the dialysis solution, as share of the initial quantity in the artificial plasma [6] | variation in the concentration of etidronate in the plasma and the dialysing liquid [7] | SMILES
1 | 40% | increase the plasma concentration | up to 0.75% | 140% | 1000 ng/mL | 72 ± 10 µg | no variations |  |  |  |  |  | O=P(O)(O)O[C@H]1[C@H](OP(=O)(O)O)[C@@H](OP(=O)(O)O)[C@H](OP(=O)(O)O)[C@@H](OP(=O)(O)O)[C@H]1OP(=O)(O)O [phytate, myo-inositol hexaphosphate]
2 |  |  |  |  |  |  |  | increase the plasma concentration | up to 1.65% | 330% | 95.6% | no variations | CC(O)(P(=O)(O)O)P(=O)(O)O [etidronate, etidronic acid]

From patent US8778912B2, “Composition of dialysis liquid comprising crystallisation inhibitor substances” (Universitat de les Illes Balears, priority 2008, dated 2014)
